# Reference: patent publication US7932271B2, “Heterocyclic methyl sulfone derivative” (Daiichi Pharmaceutical Co., Ltd., priority 2003, dated 2011)
# pIC50: −log10 of the molar value.
# What was measured:
# [1] = test system: β amyloid protein (Aβ) secreted by E35 cells (human glioma H4 cells transfected with APP751 gene); test: Inhibition of production or secretion of β-amyloid protein (Aβ) in E35 cells, sandwich ELISA of the supernatant; type: cell-based; conditions: 24 hours with test compound, compared to DMSO control cells, read-out: Activity (IC50, concentration at which 50% inhibition of Aβ production was observed)
# Experimental: The inhibitory activity against formation of β amyloid protein of the compounds obtained in Examples was tested in the method described bellow.
# E35 cells were established by transfecting APP751 gene which is a wild type human β-amyloid protein precursor into human glioma cells (H4 cells).
# E35 cells were seeded in 96-well plates and cultured in an incubator of 37° C. by using a Dulbecco's Modified Eagle's Medium containing 10% inactivated fetal bovine serum (10% FBS-DMEM). Twenty-four hours after seeding, a test compound dissolved in DMSO so as to give its concentration to be 2000 times as much as that of the final concentration was added to the medium in an amount of 1/2000 capacity of the culture medium. The cells were cultured for additional twenty-four hours, and then the supernatant was collected. The amount of β amyloid protein (Aβ) secreted in the supernatant was measured by the sandwich enzyme-linked immunosorbent assay (ELISA). Described specifically, a monoclonal antibody 25-1, which recognized Aβ25-35, was immobilized onto a 96-well ELISA plate, followed by the incubation at 4° C. for 16 to 20 hours. After washing with a phosphate buffer (pH 7.4) (PBS), a biotinylated monoclonal antibody MA32-40, which recognized Aβ1-8, was added, and the plate was kept at 4° C. for 2 hours. After the supernatant was removed and the well was washed sufficiently with PBS, alkaline phosphatase-conjugated streptavidin was added to the plate. Absorbance was measured while adding BlouPhos (manufactured by KPL) as a substrate. An amount of Aβ contained in the supernatant was calculated using a calibration curve separately created using Aβ of a known concentration. IC50 of the test compound was presented as the concentration at which 50% inhibition of Aβ production was observed compared to the amount of Aβ of the control cells to which only DMSO was added.
# When there is at least 10-times difference between the IC50 and the concentration at which cytotoxicity appears, then the compound is judged as a compound having an inhibitory activity against production or secretion of β amyloid protein.
Compound,pIC50 [1],melting point
"COc1ccc(S(=O)(=O)C(c2cc(F)ccc2F)c2cc(N)ncc2Cl)cc1 (centres unmarked) [Example 240, [5-Chloro-4-[(2,5-difluorophenyl)(4-methoxyphenylsulfonyl)methyl]pyridin-2-yl]amine]",7.30 to 8.30,153 to 155 °C
"Nc1cc(C(c2cc(F)ccc2F)S(=O)(=O)c2ccc(Cl)s2)c(Cl)cn1 (centres unmarked) [Example 243, [5-Chloro-4-[(5-chlorothiophen-2-ylsulfonyl)(2,5-difluorophenyl)methyl]pyridin-2-yl]amine]",7.30 to 8.30,170 to 171 °C
"O=S(=O)(c1ccc(Cl)cc1)C(c1cccnc1)c1cc(F)ccc1F (centres unmarked) [Example 19, 3-[[(4-Chlorophenyl)sulfonyl]-(2,5-difluorophenyl)methyl]pyridine]",6.30 to 7.30,130 to 131 °C
"Nc1cc(C(c2cc(F)ccc2F)S(=O)(=O)c2ccc(Cl)cc2)c(F)cn1 (centres unmarked) [Example 203, [4-[(4-Chlorophenylsulfonyl)(2,5-difluorophenyl)methyl]-5-fluoropyridin-2-yl]amine]",7.30 to 8.30,181 to 183 °C
"Nc1cc(C(c2cc(F)ccc2F)S(=O)(=O)c2ccc(Cl)c(F)c2)c(Cl)cn1 (centres unmarked) [Example 251, [5-Chloro-4-[(4-chloro-3-fluorophenylsulfonyl)(2,5-difluorophenyl)methyl]pyridin-2-yl]amine]",> 8.30,159 to 160 °C
"Nc1cc(C(c2cc(F)ccc2F)S(=O)(=O)c2ccc(Cl)cn2)c(Cl)cn1 (centres unmarked) [Example 241, [5-Chloro-4-[(5-chloropyridin-2-ylsulfonyl)(2,5-difluorophenyl)methyl]pyridin-2-yl]amine]",7.30 to 8.30,187 to 189 °C
"Nc1cc(C(c2cc(F)ccc2F)S(=O)(=O)c2ccc(F)c(F)c2)c(Cl)cn1 (centres unmarked) [Example 247, [5-Chloro-4-[(2,5-difluorophenyl)(3,4-difluorophenylsulfonyl)methyl]pyridin-2-yl]amine]",> 8.30,140 to 141 °C
"COc1cc(S(=O)(=O)C(c2cc(F)ccc2F)c2cc(N)ncc2Cl)ccc1Cl (centres unmarked) [Example 239, [5-Chloro-4-[(4-chloro-3-methoxyphenylsulfonyl)(2,5-difluorophenyl)methyl]pyridin-2-yl]amine]",6.30 to 7.30,198 to 200 °C
"O=C(O)CCc1cc(C(c2cc(F)ccc2F)S(=O)(=O)c2ccc(C(F)(F)F)cc2)c(Cl)cn1 (centres unmarked) [Example 267, 3-[5-Chloro-4-[(2,5-difluorophenyl)(4-trifluoromethylphenylsulfonyl)methyl]pyridin-2-yl]propionic acid]",7.30 to 8.30,166 to 167 °C
"O=S(=O)(c1ccc(Cl)cc1)C(c1ccc(C2OCCO2)cn1)c1cc(F)ccc1F (centres unmarked) [Example 42, 2-[(4-Chlorophenylsulfonyl)-(2,5-difluorophenyl)methyl]-5-(1,3-dioxolan-2-yl)pyridine]",6.30 to 7.30,167 to 168 °C
"O=S(=O)(c1ccc(Cl)cc1)C(c1cc(F)ccc1F)C1CCCCC1 (centres unmarked) [Example 1, 2-[[(4-Chlorophenyl)sulfonyl](cyclohexyl)methyl]-1,4-difluorobenzene]",6.30 to 7.30,107 to 109 °C
"N#Cc1ccc(S(=O)(=O)C(c2cc(F)ccc2F)c2cc(N)ncc2Cl)cc1 (centres unmarked) [Example 246, 4-[(2-Amino-5-chloropyridin-4-yl)(2,5-difluorophenyl)methylsulfonyl]benzonitrile]",7.30 to 8.30,233 to 235 °C
"O=S(=O)(c1ccc(Cl)cc1)C(c1ccc(CO)cn1)c1cc(F)ccc1F (centres unmarked) [Example 43, 2-[(4-Chlorophenylsulfonyl)-(2,5-difluorophenyl)methyl]-5-(hydroxymethyl)pyridine]",6.30 to 7.30,151 to 152 °C

# Next, values leading:
pIC50 [1],melting point,Compound
7.30 to 8.30,180 to 181 °C,"O=S(=O)(c1ccc(Cl)cc1)C(c1cc(F)ccc1F)c1cc(N2CCOCC2)ncc1Cl (centres unmarked) [Example 59, 4-[5-Chloro-4-[(4-chlorophenylsulfonyl)-(2,5-difluorophenyl)methyl]pyridin-2-yl]morpholine]"
> 8.30,257 °C (dec.),"O=S(=O)(Cc1ccncc1)Nc1cc(C(c2cc(F)ccc2F)S(=O)(=O)c2ccc(Cl)cc2)c(Cl)cn1 (centres unmarked) [Example 269, N-[5-Chloro-4-[(4-chlorophenylsulfonyl)(2,5-difluorophenyl)methyl]pyridin-2-yl]-1-pyridin-4-ylmethanesulfonamide]"
> 8.30,168 to 169 °C,"O=S(=O)(c1ccc(Cl)cc1)C(c1cc(F)ccc1F)c1cc(NCCO)ncc1Cl (centres unmarked) [Example 168, 2-[[5-Chloro-4-[(4-chlorophenylsulfonyl)-(2,5-difluorophenyl)methyl]pyridin-2-yl]amino]ethanol]"
> 8.30,200 to 203 °C,"O=S(=O)(CCN1CCCCC1)Nc1cc(C(c2cc(F)ccc2F)S(=O)(=O)c2ccc(Cl)cc2)c(Cl)cn1 (centres unmarked) [Example 278, N-[5-Chloro-4-[(4-chlorophenylsulfonyl)(2,5-difluorophenyl)methyl]pyridin-2-yl]-2-piperidin-1-ylethanesulfonamide]"
> 8.30,220 to 222 °C,"CS(=O)(=O)Nc1cc(C(c2cc(F)ccc2F)S(=O)(=O)c2ccc(Cl)cc2)c(Cl)cn1 (centres unmarked) [Example 197, N-[5-Chloro-4-[(4-chlorophenylsulfonyl)(2,5-difluorophenyl)methyl]pyridin-2-yl]methanesulfonamide]"
> 8.30,188 to 189 °C,"Cc1cnc(N)cc1C(c1cc(F)ccc1F)S(=O)(=O)c1ccc(Cl)cc1 (centres unmarked) [Example 211, [4-[(4-Chlorophenylsulfonyl)(2,5-difluorophenyl)methyl]-5-methylpyridin-2-yl]amine]"
7.30 to 8.30,219 to 221 °C,"O=S(=O)(c1ccc(Cl)cc1)C(c1cc(F)ccc1F)c1cc(N2CCCS2(=O)=O)ncc1Cl (centres unmarked) [Example 274, 5-Chloro-4-[(4-chlorophenylsulfonyl)(2,5-difluorophenyl)methyl]-2-(1,1-dioxo-1λ^6-isothiazolidin-2-yl)pyridine]"
> 8.30,157 to 159 °C,"Nc1cc(C(c2cc(F)ccc2F)S(=O)(=O)c2ccc(F)cc2)c(Cl)cn1 (centres unmarked) [Example 215, [5-Chloro-4-[(2,5-difluorophenyl)-(4-fluorophenylsulfonyl)methyl]pyridin-2-yl]amine]"
7.30 to 8.30,194 to 196 °C,"O=C(O)CCc1cc(C(c2cc(F)ccc2F)S(=O)(=O)c2ccc(Cl)cc2)c(Cl)cn1 (centres unmarked) [Example 261, 3-[5-Chloro-4-[(4-chlorophenylsulfonyl)(2,5-difluorophenyl)methyl]pyridin-2-yl]propionic acid]"
> 8.30,88 to 89 °C,"CN(CCO)c1cc(C(c2cc(F)ccc2F)S(=O)(=O)c2ccc(Cl)cc2)c(Cl)cn1 (centres unmarked) [Example 164, 2-[[5-Chloro-4-[(4-chlorophenylsulfonyl)-(2,5-difluorophenyl)methyl]pyridin-2-yl](methyl)amino]ethanol]"
> 8.30,294 to 296 °C,"Cn1cnc(S(=O)(=O)Nc2cc(C(c3cc(F)ccc3F)S(=O)(=O)c3ccc(Cl)cc3)c(Cl)cn2)c1 (centres unmarked) [Example 268, N-[5-Chloro-4-[(4-chlorophenylsulfonyl)(2,5-difluorophenyl)methyl]pyridin-2-yl]-1-methyl-1H-imidazole-4-sulfonamide]"
> 8.30,219 to 221 °C,"O=S(=O)(CCN1CCOCC1)Nc1cc(C(c2cc(F)ccc2F)S(=O)(=O)c2ccc(Cl)cc2)c(Cl)cn1 (centres unmarked) [Example 280, N-[5-Chloro-4-[(4-chlorophenylsulfonyl)(2,5-difluorophenyl)methyl]pyridin-2-yl]-2-morpholin-4-ylethanesulfonamide]"
7.30 to 8.30,146 to 148 °C,"O=S(=O)(c1ccc(Cl)cc1)C(c1cc(F)ccc1F)c1cc(N2CCC(O)CC2)ncc1Cl (centres unmarked) [Example 116, 5-Chloro-4-[(4-chlorophenylsulfonyl)-(2,5-difluorophenyl)methyl]-2-(4′-hydroxypiperidin-1′-yl)pyridine]"
> 8.30,118 to 120 °C,"CS(=O)(=O)Nc1cc(C(c2cc(C#N)ccc2F)S(=O)(=O)c2ccc(Cl)cc2)c(Cl)cn1 (centres unmarked) [Example 236, N-[5-Chloro-4-[(4-chlorophenylsulfonyl)(5-cyano-2-fluorophenyl)methyl]pyridin-2-yl]methanesulfonamide]"
> 8.30,178 to 179 °C,"CS(=O)(=O)Nc1cc(C(c2cc(F)ccc2F)S(=O)(=O)c2ccc(F)cc2)c(Cl)cn1 (centres unmarked) [Example 216, N-[5-Chloro-4-[(2,5-difluorophenyl)-(4-fluorophenylsulfonyl)methyl]pyridin-2-yl]methanesulfonamide]"
